# Test results published in PubChem BioAssay AID2060616 (Molecular Pharmacology Branch, DTP, NCI, 2025).
# Tested on: 377384-186-R-J1-PDC complex spheroid viability
# Assay: Anticancer human tumor 377384-186-R-J1-PDC patient-derived pancreatic carcinoma cell line growth inhibition [CLK]
# Settings: for IC50: curve of first compound; for viability, T/C: stronger effect = lower value
# Outline: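 Patient-derived tumor cells grown as complex spheroids with HUVEC endothelial cells and mesenchymal stem cells, treated with drug combinations. Concentrations descend in half-log steps from near clinical Cmax, or from 10 microM if Cmax unknown.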
# [1] = second compound 0.0316 µM, first compound 0.0316 µM
# [2] = second compound 0.0316 µM, first compound 0.1 µM
# [3] = second compound 0.0316 µM, first compound 0.316 µM
# [4] = second compound 0.0316 µM, first compound 1 µM
# [5] = second compound 0.0316 µM, first compound 3.16 µM
# [6] = second compound 0.0316 µM, first compound 10 µM
# [7] = second compound 0.1 µM, first compound 0.0316 µM
# [8] = second compound 0.1 µM, first compound 0.1 µM
# [9] = second compound 0.1 µM, first compound 0.316 µM
# [10] = second compound 0.1 µM, first compound 1 µM
# [11] = second compound 0.1 µM, first compound 3.16 µM
# [12] = second compound 0.1 µM, first compound 10 µM
# [13] = second compound 0.316 µM, first compound 0.0316 µM
# [14] = second compound 0.316 µM, first compound 0.1 µM
# [15] = second compound 0.316 µM, first compound 0.316 µM
# [16] = second compound 0.316 µM, first compound 1 µM
# [17] = second compound 0.316 µM, first compound 3.16 µM
# [18] = second compound 0.316 µM, first compound 10 µM
# [19] = second compound 1 µM, first compound 0.0316 µM
# [20] = second compound 1 µM, first compound 0.1 µM
# [21] = second compound 1 µM, first compound 0.316 µM
# [22] = second compound 1 µM, first compound 1 µM
# [23] = second compound 1 µM, first compound 3.16 µM
# [24] = second compound 1 µM, first compound 10 µM
# [25] = second compound 3.16 µM, first compound 0.0316 µM
# [26] = second compound 3.16 µM, first compound 0.1 µM
# [27] = second compound 3.16 µM, first compound 0.316 µM
# [28] = second compound 3.16 µM, first compound 1 µM
# [29] = second compound 3.16 µM, first compound 3.16 µM
# [30] = second compound 3.16 µM, first compound 10 µM
# [31] = second compound 10 µM, first compound 0.0316 µM
# [32] = second compound 10 µM, first compound 0.1 µM
# [33] = second compound 10 µM, first compound 0.316 µM
# [34] = second compound 10 µM, first compound 1 µM
# [35] = second compound 10 µM, first compound 3.16 µM
# [36] = second compound 10 µM, first compound 10 µM
# 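Also: spheroids exposed to agents for 7 days before reading.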
# 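For viability, T/C in this document: luminescence signal used as a stand-in for viable cells.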
smiles,measurement,setting,value
C#Cc1c(F)ccc2cc(O)cc(-c3ncc4c(N5CC6CCC(C5)N6)nc(OCC56CCCN5CC(F)C6)nc4c3F)c12 (stereo not drawn) + CNC(=O)c1ccc(Nc2nc(OC3CCCC3)c3c(-c4ccc5nc(C)oc5c4)c[nH]c3n2)c(OC)c1,IC50,second compound 0.0316 µM,< 31.6 nM
same,IC50,second compound 0.1 µM,< 31.6 nM
same,IC50,second compound 0.316 µM,< 31.6 nM
same,IC50,second compound 1 µM,< 31.6 nM
same,IC50,second compound 3.16 µM,< 31.6 nM
same,IC50,second compound 10 µM,< 31.6 nM
same,"viability, T/C",[1],23.6%
same,"viability, T/C",[2],11.7%
same,"viability, T/C",[3],5.37%
same,"viability, T/C",[4],4.27%
same,"viability, T/C",[5],2.38%
same,"viability, T/C",[6],1.98%
same,"viability, T/C",[7],22%
same,"viability, T/C",[8],8.53%
same,"viability, T/C",[9],5.17%
same,"viability, T/C",[10],2.73%
same,"viability, T/C",[11],2.7%
same,"viability, T/C",[12],2.19%
same,"viability, T/C",[13],7.28%
same,"viability, T/C",[14],4.75%
same,"viability, T/C",[15],3.08%
same,"viability, T/C",[16],2.69%
same,"viability, T/C",[17],2.74%
same,"viability, T/C",[18],2.17%
same,"viability, T/C",[19],6.44%
same,"viability, T/C",[20],3.72%
same,"viability, T/C",[21],2.21%
same,"viability, T/C",[22],1.64%
same,"viability, T/C",[23],1.66%
same,"viability, T/C",[24],1.12%
same,"viability, T/C",[25],4.56%
same,"viability, T/C",[26],3.31%
same,"viability, T/C",[27],2.47%
same,"viability, T/C",[28],2.25%
same,"viability, T/C",[29],1.64%
same,"viability, T/C",[30],1.59%
same,"viability, T/C",[31],4.62%
same,"viability, T/C",[32],2.7%
same,"viability, T/C",[33],2.29%
same,"viability, T/C",[34],1.95%
same,"viability, T/C",[35],1.6%
same,"viability, T/C",[36],2.24%
C=C(F)C(=O)N1CCN(c2nc(OCC3CCCN3C)nc3c2CCN(c2cccc4cccc(Cl)c24)C3)CC1CC#N (stereo not drawn) + CNC(=O)c1ccc(Nc2nc(OC3CCCC3)c3c(-c4ccc5nc(C)oc5c4)c[nH]c3n2)c(OC)c1,IC50,second compound 0.0316 µM,2060 nM
same,IC50,second compound 0.1 µM,145 nM
same,IC50,second compound 0.316 µM,< 31.6 nM
same,IC50,second compound 1 µM,< 31.6 nM
same,IC50,second compound 3.16 µM,< 31.6 nM
same,IC50,second compound 10 µM,< 31.6 nM
same,"viability, T/C",[1],99.6%
same,"viability, T/C",[2],93.8%
same,"viability, T/C",[3],102%
same,"viability, T/C",[4],96.6%
same,"viability, T/C",[5],22.3%
same,"viability, T/C",[6],0.88%
same,"viability, T/C",[7],54.3%
same,"viability, T/C",[8],50.9%
same,"viability, T/C",[9],45.7%
same,"viability, T/C",[10],40.4%
same,"viability, T/C",[11],23.1%
same,"viability, T/C",[12],0.37%
same,"viability, T/C",[13],21.2%
same,"viability, T/C",[14],22.8%
same,"viability, T/C",[15],20.7%
same,"viability, T/C",[16],22.1%
same,"viability, T/C",[17],12%
same,"viability, T/C",[18],0.26%
same,"viability, T/C",[19],19.5%
same,"viability, T/C",[20],19.3%
same,"viability, T/C",[21],19%
same,"viability, T/C",[22],17.9%
same,"viability, T/C",[23],11.1%
same,"viability, T/C",[24],0.2%
same,"viability, T/C",[25],20.5%
same,"viability, T/C",[26],20.9%
same,"viability, T/C",[27],18.3%
same,"viability, T/C",[28],20.3%
same,"viability, T/C",[29],8.66%
same,"viability, T/C",[30],0.22%
same,"viability, T/C",[31],20.6%
same,"viability, T/C",[32],21.4%
same,"viability, T/C",[33],21.9%
same,"viability, T/C",[34],17.1%
same,"viability, T/C",[35],8.61%
same,"viability, T/C",[36],0.3%
CC(CO)NC(=O)c1cc(-c2ccc(Cl)cc2)nn(-c2cnn(C)c2)c1=O (stereo not drawn) + CNC(=O)c1ccc(Nc2nc(OC3CCCC3)c3c(-c4ccc5nc(C)oc5c4)c[nH]c3n2)c(OC)c1,IC50,second compound 0.0316 µM,9170 nM
same,IC50,second compound 0.1 µM,3300 nM
same,IC50,second compound 0.316 µM,< 31.6 nM
same,IC50,second compound 1 µM,< 31.6 nM
same,IC50,second compound 3.16 µM,< 31.6 nM
same,IC50,second compound 10 µM,< 31.6 nM
same,"viability, T/C",[1],102%
same,"viability, T/C",[2],120%
same,"viability, T/C",[3],117%
same,"viability, T/C",[4],106%
same,"viability, T/C",[5],85.1%
same,"viability, T/C",[6],47.1%
same,"viability, T/C",[7],64.1%
same,"viability, T/C",[8],75.6%
same,"viability, T/C",[9],55.4%
same,"viability, T/C",[10],58.4%
same,"viability, T/C",[11],53.1%
same,"viability, T/C",[12],35.9%
same,"viability, T/C",[13],23.6%
same,"viability, T/C",[14],25.4%
same,"viability, T/C",[15],24.7%
same,"viability, T/C",[16],22.7%
same,"viability, T/C",[17],24.4%
same,"viability, T/C",[18],20.5%
same,"viability, T/C",[19],26.8%
same,"viability, T/C",[20],20.7%
same,"viability, T/C",[21],21%
same,"viability, T/C",[22],22%
same,"viability, T/C",[23],20.5%
same,"viability, T/C",[24],17.8%
same,"viability, T/C",[25],21%
same,"viability, T/C",[26],21.2%
same,"viability, T/C",[27],21.7%
same,"viability, T/C",[28],23.9%
same,"viability, T/C",[29],22.3%
same,"viability, T/C",[30],19.6%
same,"viability, T/C",[31],22.5%
same,"viability, T/C",[32],21.3%
same,"viability, T/C",[33],20.4%
same,"viability, T/C",[34],19.9%
same,"viability, T/C",[35],18.1%
same,"viability, T/C",[36],19.1%
COc1c(OCCCN2CCOCC2)ccc2c3n(c(=NC(=O)c4cnc(N)nc4)nc12)CCN3 + CNC(=O)c1ccc(Nc2nc(OC3CCCC3)c3c(-c4ccc5nc(C)oc5c4)c[nH]c3n2)c(OC)c1,IC50,second compound 0.0316 µM,29.9 nM
same,IC50,second compound 0.1 µM,12.2 nM
same,IC50,second compound 0.316 µM,< 3.16 nM
same,IC50,second compound 1 µM,< 3.16 nM
same,IC50,second compound 3.16 µM,< 3.16 nM
same,IC50,second compound 10 µM,< 3.16 nM
same,"viability, T/C","second compound 0.0316 µM, first compound 0.00316 µM",74.8%
same,"viability, T/C","second compound 0.0316 µM, first compound 0.01 µM",66.1%
same,"viability, T/C",[1],47.6%
same,"viability, T/C",[2],33.9%
same,"viability, T/C",[3],23.1%
same,"viability, T/C",[4],14%
same,"viability, T/C","second compound 0.1 µM, first compound 0.00316 µM",63.3%
same,"viability, T/C","second compound 0.1 µM, first compound 0.01 µM",54.5%
same,"viability, T/C",[7],35.7%
same,"viability, T/C",[8],27.5%
same,"viability, T/C",[9],17.4%
same,"viability, T/C",[10],12%
same,"viability, T/C","second compound 0.316 µM, first compound 0.00316 µM",19.1%
same,"viability, T/C","second compound 0.316 µM, first compound 0.01 µM",19.1%
same,"viability, T/C",[13],14.5%
same,"viability, T/C",[14],14%
same,"viability, T/C",[15],11.6%
same,"viability, T/C",[16],10.4%
same,"viability, T/C","second compound 1 µM, first compound 0.00316 µM",19%
same,"viability, T/C","second compound 1 µM, first compound 0.01 µM",16.6%
same,"viability, T/C",[19],16.8%
same,"viability, T/C",[20],12.2%
same,"viability, T/C",[21],10.7%
same,"viability, T/C",[22],9.69%
same,"viability, T/C","second compound 3.16 µM, first compound 0.00316 µM",19.9%
same,"viability, T/C","second compound 3.16 µM, first compound 0.01 µM",17.6%
same,"viability, T/C",[25],13.6%
same,"viability, T/C",[26],12.9%
same,"viability, T/C",[27],9.91%
same,"viability, T/C",[28],9.78%
same,"viability, T/C","second compound 10 µM, first compound 0.00316 µM",21.4%
same,"viability, T/C","second compound 10 µM, first compound 0.01 µM",17.7%
same,"viability, T/C",[31],14.4%
same,"viability, T/C",[32],11.6%
same,"viability, T/C",[33],10.8%
same,"viability, T/C",[34],9.14%
